Measurements reported in ChEMBL document CHEMBL3085727 (J Med Chem, 2013).
The source made the active and inactive calls. The calls are words filed in the database; no cut-off is given here.

Key:
Mu-type opioid receptor [1] = target: T1, Mu-type opioid receptor (Homo sapiens, UniProt P35372); test: Agonist activity at mu opioid receptor (unknown origin) expressed in CHO cell membranes assessed as stimulation of [35S]-GTPgammaS binding after 1.5 hrs relative to DAMGO; type: functional
Homo sapiens [2] = species on record: Homo sapiens; test: Selectivity ratio of Ki for kappa opioid receptor (unknown origin) to Ki for mu opioid receptor (unknown origin)
Homo sapiens [3] = species on record: Homo sapiens; test: Selectivity ratio of Ki for delta opioid receptor (unknown origin) to Ki for mu opioid receptor (unknown origin)
Homo sapiens [4] = species on record: Homo sapiens; test: Selectivity ratio of Ki for delta opioid receptor (unknown origin) to Ki for kappa opioid receptor (unknown origin)
Homo sapiens [5] = species on record: Homo sapiens; test: Selectivity ratio of Ki for mu opioid receptor (unknown origin) to Ki for kappa opioid receptor (unknown origin)
Homo sapiens [6] = species on record: Homo sapiens; test: Selectivity ratio of Ki for human kappa opioid receptor to Ki for human mu opioid receptor
Homo sapiens [7] = species on record: Homo sapiens; test: Selectivity ratio of Ki for human delta opioid receptor to Ki for human mu opioid receptor
[8] = target: T2, Kappa-type opioid receptor (Homo sapiens, UniProt P41145); test: Agonist activity at kappa opioid receptor (unknown origin) expressed in CHO cell membranes assessed as stimulation of [35S]-GTPgammaS binding after 1.5 hrs relative to U50488; type: functional
Mu-type opioid receptor [9] = target: T1, Mu-type opioid receptor; test: Agonist activity at mu opioid receptor (unknown origin) expressed in CHO cell membranes assessed as stimulation of [35S]-GTPgammaS binding at 10 uM after 1.5 hrs relative to DAMGO; type: functional
[10] = target: Delta-type opioid receptor (Homo sapiens) (UniProt P41143); test: Agonist activity at delta opioid receptor (unknown origin) expressed in CHO cell membranes assessed as stimulation of [35S]-GTPgammaS binding after 1.5 hrs relative to SNC80; type: functional
Mus musculus [11] = test: Antinociceptive activity in Swiss-Webster mouse up to 30 mg/kg, sc by warm-water tail-flick assay; type: functional, organism-based; parameters: dose 30 mg/kg
Mus musculus [12] = test: Induction of withdrawal symptoms in chronic morphine-exposed Swiss-Webster mouse assessed as decrease in wet dog shakes at 3 to 30 mg/kg, sc measured over 20 mins; type: organism-based; parameters: dose 3-30 mg/kg, route subcutaneous; details: in vivo
Mus musculus [13] = test: Induction of withdrawal symptoms in chronic morphine-exposed Swiss-Webster mouse assessed as decrease in escape jumps at 30 mg/kg, sc measured over 20 mins; type: organism-based; parameters: dose 30 mg/kg, route subcutaneous; details: in vivo
Mus musculus [14] = test: Reduction of morphine-induced antinociceptive activity in sc dosed Swiss-Webster mouse assessed as dose required to antagonize morphine effect by warm-water tail-flick assay; type: functional
Mus musculus [15] = test: Induction of withdrawal symptoms in chronic morphine-exposed Swiss-Webster mouse assessed as decrease in escape jumps at 3 to 10 mg/kg, sc measured over 20 mins; type: organism-based; parameters: dose 3-10 mg/kg, route subcutaneous; details: in vivo
Mus musculus [16] = test: Induction of withdrawal symptoms in chronic morphine-exposed Swiss-Webster mouse assessed as decrease in wet dog shakes at 1 mg/kg, sc measured over 20 mins; type: organism-based; parameters: dose 1 mg/kg, route subcutaneous; details: in vivo
Mus musculus [17] = test: Induction of withdrawal symptoms in chronic morphine-exposed Swiss-Webster mouse assessed as decrease in escape jumps at 1 mg/kg, sc measured over 20 mins; type: organism-based; parameters: dose 1 mg/kg, route subcutaneous; details: in vivo
[18] = target: T2, Kappa-type opioid receptor; test: Partial agonist activity at human kappa opioid receptor expressed in CHO cells assessed as stimulation of [35S]-GTPgammaS binding after 3 hrs by liquid scintillation counting analysis; type: functional, cell-based
Mus musculus [19] = test: Induction of withdrawal symptoms in chronic morphine-exposed Swiss-Webster mouse assessed as decrease in wet dog shakes at 10 to 30 mg/kg, sc measured over 20 mins; type: organism-based; parameters: dose 10-30 mg/kg, route subcutaneous; details: in vivo
Mus musculus [20] = test: Induction of withdrawal symptoms in chronic morphine-exposed Swiss-Webster mouse assessed as decrease in escape jumps at 10 to 30 mg/kg, sc measured over 20 mins; type: organism-based; parameters: dose 10-30 mg/kg, route subcutaneous; details: in vivo
Mus musculus [21] = test: Induction of withdrawal symptoms in chronic morphine-exposed Swiss-Webster mouse assessed as decrease in wet dog shakes at 3 mg/kg, sc measured over 20 mins; type: organism-based; parameters: dose 3 mg/kg, route subcutaneous; details: in vivo

T1 sequence (P35372 whole entry): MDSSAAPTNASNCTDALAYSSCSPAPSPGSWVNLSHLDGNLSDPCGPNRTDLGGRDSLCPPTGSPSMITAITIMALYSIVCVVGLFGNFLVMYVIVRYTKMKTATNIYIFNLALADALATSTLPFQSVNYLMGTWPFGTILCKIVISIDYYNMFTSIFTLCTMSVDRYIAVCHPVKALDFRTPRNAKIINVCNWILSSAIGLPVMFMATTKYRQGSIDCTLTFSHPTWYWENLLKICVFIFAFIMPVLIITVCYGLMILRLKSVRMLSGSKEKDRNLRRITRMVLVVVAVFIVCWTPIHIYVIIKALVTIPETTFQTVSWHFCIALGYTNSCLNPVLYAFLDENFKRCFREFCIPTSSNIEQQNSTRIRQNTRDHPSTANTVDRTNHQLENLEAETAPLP
T2 sequence (P41145 whole entry): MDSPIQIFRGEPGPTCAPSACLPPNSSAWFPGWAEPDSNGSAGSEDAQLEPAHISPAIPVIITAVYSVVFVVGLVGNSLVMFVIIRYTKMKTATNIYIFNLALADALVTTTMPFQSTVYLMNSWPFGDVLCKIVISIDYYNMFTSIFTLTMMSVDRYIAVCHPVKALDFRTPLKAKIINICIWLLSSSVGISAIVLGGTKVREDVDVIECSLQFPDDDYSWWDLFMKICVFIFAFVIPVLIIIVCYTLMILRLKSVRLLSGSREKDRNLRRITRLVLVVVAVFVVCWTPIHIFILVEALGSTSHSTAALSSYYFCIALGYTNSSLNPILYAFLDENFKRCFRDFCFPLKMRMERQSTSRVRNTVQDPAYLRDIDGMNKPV
Sequence of Delta-type opioid receptor (Homo sapiens) (P41143 whole entry): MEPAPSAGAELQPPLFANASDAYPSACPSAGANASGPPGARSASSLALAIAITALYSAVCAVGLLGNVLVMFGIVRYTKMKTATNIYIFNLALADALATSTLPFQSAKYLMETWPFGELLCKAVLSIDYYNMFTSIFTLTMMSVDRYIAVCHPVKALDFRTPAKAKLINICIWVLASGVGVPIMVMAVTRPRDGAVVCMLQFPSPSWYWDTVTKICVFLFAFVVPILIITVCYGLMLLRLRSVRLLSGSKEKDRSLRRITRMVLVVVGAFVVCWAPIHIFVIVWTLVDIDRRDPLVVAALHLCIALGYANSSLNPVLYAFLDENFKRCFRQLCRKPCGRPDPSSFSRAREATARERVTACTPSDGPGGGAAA

Row | SMILES | Emax (Mu-type opioid receptor [1]) [%] | Ratio Ki (Homo sapiens [2]) | Ratio Ki (Homo sapiens [3]) | Ratio Ki (Homo sapiens [4]) | Ratio Ki (Homo sapiens [5]) | also measured
1 | O=C(O[C@@]12CCC(=O)[C@@H]3Oc4c(O)ccc5c4[C@@]31CCN(CC1CC1)[C@@H]2C5)c1cnc2ccccc2c1 | 22 | 55 | 304 | 5.5 | – | –
2 | O=C(N[C@@]12CCC(=O)[C@@H]3Oc4c(O)ccc5c4[C@@]31CCN(CC1CC1)[C@@H]2C5)c1ccccc1 | 5.8 | – | 13 | 477 | 36 | –
3 | O=C(Cc1ccccn1)N[C@@]12CCC(=O)[C@@H]3Oc4c(O)ccc5c4[C@@]31CCN(CC1CC1)[C@@H]2C5 | 78 | – | 14 | 21 | 1.5 | –
4 | Cc1ccc(/C=C/C(=O)O[C@@]23CCC(=O)[C@@H]4Oc5c(O)ccc6c5[C@@]42CCN(CC2CC2)[C@@H]3C6)cc1 | – | – | – | – | – | Ratio Ki (Homo sapiens [6]): 15; Ratio Ki (Homo sapiens [7]): 31
5 | Cl.O=C(N[C@@]12CCC(=O)[C@@H]3Oc4c(O)ccc5c4[C@@]31CCN(CC1CC1)[C@@H]2C5)c1cc2ccccc2cn1 | – | – | 7.2 | 93 | 13 | Emax [8]: 16.8%; Emax (Mu-type opioid receptor [9]): 2.8%; Emax [10]: 23.8%; Activity (Mus musculus [11]): inactive; Activity (Mus musculus [12]): Toxic; Activity (Mus musculus [13]): Toxic; Activity (Mus musculus [14]): 0.87 mg/kg; Activity (Mus musculus [15]): Non-toxic
6 | O=C(CNC(=O)c1ccccn1)N[C@@]12CCC(=O)[C@@H]3Oc4c(O)ccc5c4[C@@]31CCN(CC1CC1)[C@@H]2C5 | 11.8 | – | 1.2 | 2.6 | 2.1 | –
7 | O=C(O[C@@]12CCC(=O)[C@@H]3Oc4c(O)ccc5c4[C@@]31CCN(CC1CC1)[C@@H]2C5)c1ccc2ccccc2n1 | – | 47 | 16 | 0.34 | – | –
8 | O=C(O[C@@]12CCC(=O)[C@@H]3Oc4c(O)ccc5c4[C@@]31CCN(CC1CC1)[C@@H]2C5)c1ccncc1 | – | 8.8 | 73 | 8.2 | – | –
9 | COc1cccc2c1[C@]13CCN(CC4CC4)[C@H](C2)[C@]1(OC)CCC(=O)C3 [CYPRODIME] | – | 10 | 39 | – | – | –
10 | O=C(O[C@@]12CCC(=O)[C@@H]3Oc4c(O)ccc5c4[C@@]31CCN(CC1CC1)[C@@H]2C5)c1cccnc1 | – | 30 | 107 | 3.6 | – | –
11 | O=C(CCc1ccccn1)N[C@@]12CCC(=O)[C@@H]3Oc4c(O)ccc5c4[C@@]31CCN(CC1CC1)[C@@H]2C5 | 12.7 | – | 29 | 54 | 1.9 | –
12 | C=CCN1CC[C@]23c4c5ccc(O)c4O[C@H]2C(=O)CC[C@@]3(O)[C@H]1C5 [NALOXONE] | – | – | – | – | – | Activity (Mus musculus [16]): Toxic; Activity (Mus musculus [17]): Toxic
13 | Cc1ccc(/C=C/C(=O)N[C@@]23CCC(=O)[C@@H]4Oc5c(O)ccc6c5[C@@]42CCN(CC2CC2)[C@@H]3C6)cc1 | – | – | – | – | – | Ratio Ki (Homo sapiens [6]): 3; Ratio Ki (Homo sapiens [7]): 1
14 | O=C(N[C@@]12CCC(=O)[C@@H]3Oc4c(O)ccc5c4[C@@]31CCN(CC1CC1)[C@@H]2C5)c1ccc2ccccc2n1 | 34.4 | – | 1.7 | 58 | 35 | –
15 | O=C(O[C@@]12CCC(=O)[C@@H]3Oc4c(O)ccc5c4[C@@]31CCN(CC1CC1)[C@@H]2C5)c1ccccc1 | – | 4.7 | – | > 17 | – | –
16 | O=C(N[C@@]12CCC(=O)[C@@H]3Oc4c(O)ccc5c4[C@@]31CCN(CC1CC1)[C@@H]2C5)c1ccc2ccccc2c1 | 16.5 | – | 1.7 | 32 | 19 | –
17 | O=C(O[C@@]12CCC(=O)[C@@H]3Oc4c(O)ccc5c4[C@@]31CCN(CC1CC1)[C@@H]2C5)c1ccccn1 | – | 182 | 838 | 4.6 | – | –
18 | O=C(O[C@@]12CCC(=O)[C@@H]3Oc4c(O)ccc5c4[C@@]31CCN(CC1CC1)[C@@H]2C5)c1ccc2ccccc2c1 | – | 0.21 | 4 | 19 | – | –
19 | O=C(N[C@@]12CCC(=O)[C@@H]3Oc4c(O)ccc5c4[C@@]31CCN(CC1CC1)[C@@H]2C5)c1ccncc1 | 7.7 | – | 13 | 33 | 2.5 | –
20 | O=C1CC[C@@]2(O)[C@H]3Cc4ccc(O)c5c4[C@@]2(CCN3CC2CC2)[C@H]1O5 [NALTREXONE] | – | – | – | – | – | Activity (Mus musculus [16]): Toxic; Activity (Mus musculus [17]): Toxic
21 | O=C(N[C@@]12CCC(=O)[C@@H]3Oc4c(O)ccc5c4[C@@]31CCN(CC1CC1)[C@@H]2C5)c1cnc2ccccc2c1 | 15.8 | – | 1.3 | 11 | 8.7 | –
22 | Oc1cccc2c1O[C@H]1CCC[C@H]3CN(CC4CC4)CC[C@@]231 | – | – | – | – | – | EC50 [18]: 2.7 nM
23 | Cl.O=C(N[C@@]12CCC(=O)[C@@H]3Oc4c(O)ccc5c4[C@@]31CCN(CC1CC1)[C@@H]2C5)c1cccnc1 | – | – | 53 | 249 | 4.7 | Emax [8]: 35.3%; Emax (Mu-type opioid receptor [9]): 5.1%; Activity (Mus musculus [19]): Toxic; Emax [10]: 10.3%; Activity (Mus musculus [11]): inactive; Activity (Mus musculus [20]): Toxic; Activity (Mus musculus [14]): 0.55 mg/kg
24 | Cl.O=C(N[C@@]12CCC(=O)[C@@H]3Oc4c(O)ccc5c4[C@@]31CCN(CC1CC1)[C@@H]2C5)c1ccccn1 | – | – | 63 | 263 | 4.2 | Activity (Mus musculus [21]): Non-toxic; Emax [8]: 24.9%; Emax (Mu-type opioid receptor [9]): 0.9%; Activity (Mus musculus [19]): Toxic; Emax [10]: 8.6%; Activity (Mus musculus [11]): inactive; Activity (Mus musculus [13]): Toxic; Activity (Mus musculus [14]): 0.25 mg/kg; Activity (Mus musculus [15]): Non-toxic
